Entries after “also recorded” stand apart in the source; their conditions may differ.
What was measured:
[1] = system: A. thaliana; experiment: Root growth (primary root) of plants on high phosphate medium supplied with compound; assay type: in vivo; details: expressed as a percentage having regard to a control; +P control 100, −P 20
Excerpt: In response to phosphate starvation, the primary root growth is inhibited (Svistoonoff et al., 2007).

[2] = system: phopholipase Dz2; experiment: PLDz::GUS, follow-up of the expression of the gene encoding phospholipase Dz2 (GUS staining); assay type: in vivo, A. thaliana; details: summary over PLDz::GUS and MGD3::GUS; specific = without impact on growth or PHT1;4
Method: pPLDZ2:GUS-GFP cell line is as described by Cruz-Ramirez et al. (Cruz-Ramirez et al., 2006), and expressed a GUS-GFP fusion under the control of the pldz2 promoter. […] Plants were examined for GUS activity by dipping the samples in a GUS staining solution (50 mM sodium phosphate buffer pH 7.0; 0.01% Triton X-100, 1 mM K3Fe(CN)6, 1 mM K4Fe(CN)6, 1 mg/ml 5-dromo-4-chloro-3-indolyl (3-D-GLUCURONIDE (X-Gluc A) and incubated at 37° C. over-night. After staining, the plants were fixed 2 hours in 50 mM sodium phosphate buffer pH 7.0; 1% glutaraldehyde; 4% formaldehyde. In response to phosphate starvation, the lipid metabolism is modified (Benning and Ohta, 2005). Plants preferentially synthesize sulpho- and galacto-lipids instead of phospholipids. Several enzymes are involved in this remobilisation.

[3] = system: wild type seedlings; experiment: Anthocyanins content (spectrophotometric); assay type: in vivo, A. thaliana; parameters: key to Antho: anthocyanin content as A530 - 2.2*A652; details: accumulation of anthocyanes; +P control 46, −P 1008
Method: Anthocyanins were extracted with propanol:HCl:H2O (81:1:18) for 5 min at room temperature and 3 min at 100° C. Samples are centrifuged for 10 min at 4° C. Supernatants were collected and absorption measured at 530 nm and […]. Anthocyanin content was calculated as A530-2.2A652 (Lange et al., 1971).

Row | SMILES | Root Growth [1] | lipid metabolism: induction of PLDζ2 and/or MGD3 genes (in words) [2] | Antho [3]
1 | CC1(C)CC(=O)C(=CNc2ccccc2N)C(=O)C1 [#40] | 85 % of control | specificity in lipids remodeling | 65
2 | COc1cccc(NC=C2C(=O)CCCC2=O)c1 [#41] | 65 % of control | impact specifically the lipid metabolism inducing PLD[…]2 and MGD3; also recorded: specificity in lipids remodeling | 111
3 | CC1(C)CC(=O)C(=CNc2ccc(N)cc2)C(=O)C1 [#42] | 68 % of control | impact specifically the lipid metabolism inducing PLD[…]2 and MGD3; also recorded: specificity in lipids remodeling | 226
4 | O=C1CCCC(=O)C1=CNc1ccc(Br)cc1 [#45] | 67 % of control | impact specifically the lipid metabolism inducing PLD[…]2 and MGD3; also recorded: specificity in lipids remodeling | 106
5 | COc1ccc(NC=C2C(=O)CCCC2=O)cc1 [#46] | 70 % of control | specificity in lipids remodeling | 167

Reference: patent publication US9028855B2, “Plant additives and uses thereof to modulate the synthesis of membrane glycerolipids in planta” (Commissariat a l'Energie Atomique et aux Energies …, priority 2009, dated 2015)
